Laboratory results as given in article PMC8728441, “Biosynthesis of the redox cofactor mycofactocin is controlled by the transcriptional regulator MftR and induced by long-chain acyl-CoA species” (The Journal of Biological Chemistry, 2021).

Experiments:
MftR (WT) = MftR (WT) (Mycolicibacterium smegmatis, UniProt A0QSB5); assay: ITC binding of acyl-CoAs to MftR; design: species or system Mycobacterium smegmatis mc^2155
Procedure: (§1) ITC was performed using TA Nano ITC. MftR was loaded in the sample cell at the concentration of 16 and 250 μM acyl-CoAs (C12–C18) loaded in the syringe. To minimize the effect of buffer mismatch, the stock concentration of acyl-CoAs was prepared using ITC buffer (50 mM Hepes, 50 mM NaCl, and pH 7.5), and the pH was adjusted to within 0.05 units. In addition, MftR was buffer exchanged into ITC buffer using a PD-10 column (GE Life Sciences). The volume of the titrant added at each injection into the sample cell was 2.22 μl. The time interval between the successive injections was 180 s. The temperature of the cell was kept at 25 °C. The data obtained were fit by independent one-site model using NanoAnalyze Data Analysis, version 3.8.0, that was provided with the instrument.

MftR L120A = target: T1, MftR L120A (Mycolicibacterium smegmatis, UniProt A0QSB5, L120A); assay: ITC binding of oleoyl-CoA to MftR variant; design: species or system Mycobacterium smegmatis mc^2155
T1 sequence (A0QSB5 1-200 L120A): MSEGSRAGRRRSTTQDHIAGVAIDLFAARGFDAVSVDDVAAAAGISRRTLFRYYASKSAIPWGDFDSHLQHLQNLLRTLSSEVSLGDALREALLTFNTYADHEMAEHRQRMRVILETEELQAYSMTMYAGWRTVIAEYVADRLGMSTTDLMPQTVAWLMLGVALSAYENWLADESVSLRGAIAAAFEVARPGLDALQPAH

MftR L120R = MftR L120R (Mycolicibacterium smegmatis, UniProt A0QSB5, L120R); assay: ITC binding of oleoyl-CoA to MftR variant; design: species or system Mycobacterium smegmatis mc^2155
Procedure: (§2) Finally, we examined the effects of mutations at the interface of the DNA-binding and effector-binding domains. Here, residues Leu120 and Met127 were mutated to arginine and alanine, respectively, and the Kds for oleoyl-CoA and Omft were measured as described previously.
(§3) Mutant strand synthesis reactions were performed according to the Agilent QuikChange site-directed mutagenesis protocol. The mftR_pET28a plasmid was used as a template for site-directed mutagenesis studies. Sequence-verified plasmids were transformed into E. coli BL21(DE3) pLysS cells for protein production and purified using the same protocol as wildtype MftR.
as §1, with “The data obtained were fit by independent one-site model using NanoAnalyze Data Analysis, version 3.8.0, that was provided with the instrument.” left out

MftR M127A = MftR M127A (Mycolicibacterium smegmatis, UniProt A0QSB5, M127A); assay: ITC binding of oleoyl-CoA to MftR variant; design: species or system Mycobacterium smegmatis mc^2155
Procedure: as §2, §3
as §1, with “The data obtained were fit by independent one-site model using NanoAnalyze Data Analysis, version 3.8.0, that was provided with the instrument.” left out

MftR H68A–Omft complex = assay: Competitive EMSA with H68A mutant and oleoyl-CoA; format: binding, Mycobacterium smegmatis mc^2155; conditions: up to 100 μM oleoyl-CoA
Source text: (§4) Next, we examined which amino acid residues contribute to the interaction between MftR and oleoyl-CoA. The crystal structure of Msmeg MftR is currently unavailable; however, an unpublished structure of Rhodococcus jostii RHA1 MftR has been deposited in the Protein Data Bank (PDB) (PDB ID: 2RAE, 54% identical, Fig. S3). Using this structure, we employed SwissDock to model oleoyl-CoA bound to MftR (Fig. 5) ([41], [42]). From the docked structure, we identified eight conserved residues on MftR that were expected to create the acyl-binding pocket or bind CoA through electrostatic interactions. Following single amino acid replacements of the residues, we measured the Kd values of the mutant proteins to oleoyl-CoA using ITC. For the putative acyl-binding pocket residues Phe65, Phe96, and Ile114, mutations to alanine led to no or modest change to the Kd for oleoyl-CoA (Table 1). […] Conversely, when His68 was mutated to alanine, binding of oleoyl-CoA by the protein was undetectable. To validate this observation, competitive EMSAs were carried out using the H68A mutant. […] Thus, it is highly likely that His68 is an important residue for oleoyl-CoA binding. To evaluate residues that were expected to interact with CoA, Gln15, Asp16, Ser67, and Asp66 were targeted. Of these, mutants of Asp16 and Ser67 had the greatest effect (Table 1). […]

MftR D16R–Omft complex = assay: Competitive EMSA with D16R mutant and oleoyl-CoA; format: binding, Mycobacterium smegmatis mc^2155; conditions: up to 100 μM oleoyl-CoA
Source text: as §4

CCCCCCCC/C=C\CCCCCCCC(=O)SCCNC(=O)CCNC(=O)[C@H](O)C(C)(C)COP(=O)(O)OP(=O)(O)OC[C@H]1O[C@@H](n2cnc3c(N)ncnc32)[C@H](O)[C@@H]1OP(=O)(O)O [oleoyl-CoA]
Kd (MftR (WT)): 1.4 ± 0.1 µM | number of binding sites (MftR (WT); ITC, WT MftR, one-site model): ~0.6 sites per monomer MftR | Kd (MftR L120A): 5.2 ± 0.2 µM | Kd (MftR L120R): 6.2 ± 0.2 µM | Kd (MftR M127A): 4.8 ± 0.1 µM | release of Omft from H68A mutant (MftR H68A–Omft complex): remained bound to Omft | release of Omft from D16R mutant (MftR D16R–Omft complex): remained bound to Omft
